Experimental data reported in the supplement of paper PMC11061612.

Experiments:
Test in all cases: Bliss excess, mean over the matrix (fraction); higher = more synergy
[1] = tested on: MHH-CALL-2 (B-Lymphoblastic Leukemia)
Method in brief: (§1)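 Cell lines grown in DMEM/F12 or RPMI with 10% FBS were plated in 1536-well plates and held 24 hours at 37°C, 5% CO2 before 72 hours of exposure to two-drug dose matrices, with DMSO typically at 0.2%. CellTiter-Glo 2.0 luminescence gave viability, which was converted to inhibition. Vehicle wells were set to 0 and blank wells to 1. Combination Emax is the second-highest inhibition in the matrix, and Bliss excess is the observed combination effect minus the expected EA + EB − EA·EB, where EA and EB are the single-agent effects.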

[2] = tested on: LNZTA3WT4 (Low Grade Glioma)
Method in brief: as §1

[3] = tested on: CAL-33 (Oral Cavity Carcinoma)
Method in brief: as §1

NCI-H2052 (Mesothelioma) = tested on: NCI-H2052 (Mesothelioma)
Method in brief: as §1

[4] = tested on: FTC-133 (Thyroid Gland Carcinoma)
Method in brief: as §1

[5] = tested on: OVCAR-5 (Ovarian Carcinoma)
Method in brief: as §1

LOXIMVI (Melanoma) = tested on: LOXIMVI (Melanoma)
Method in brief: as §1

[6] = tested on: L-428 (Hodgkin's Lymphoma)
Method in brief: as §1

[7] = tested on: HuCCT1 (Biliary Tract Carcinoma)
Method in brief: as §1

[8] = tested on: NUGC-4 (Gastric Carcinoma)
Method in brief: as §1

[9] = tested on: OV-56 (Ovarian Carcinoma)
Method in brief: as §1

[10] = tested on: BFTC-909 (Kidney Carcinoma)
Method in brief: as §1

[11] = tested on: ESS-1 (Other Solid Carcinomas)
Method in brief: as §1

[12] = tested on: SW1710 (Bladder Carcinoma)
Method in brief: as §1

[13] = tested on: YAPC (Pancreatic Carcinoma)
Method in brief: as §1

[14] = tested on: HH (T-Cell Non-Hodgkin's Lymphoma)
Method in brief: as §1

[15] = tested on: NCI-H209 (Small Cell Lung Carcinoma)
Method in brief: as §1

EW-11 (Ewing's Sarcoma) = tested on: EW-11 (Ewing's Sarcoma)
Method in brief: as §1

GAMG (Glioblastoma) = tested on: GAMG (Glioblastoma)
Method in brief: as §1

[16] = tested on: ALL-PO (B-Lymphoblastic Leukemia)
Method in brief: as §1

Row | SMILES | Bliss excess [1] | Bliss excess [2] | Bliss excess [3] | Bliss excess (NCI-H2052 (Mesothelioma)) | Bliss excess [4] | Bliss excess [5] | Bliss excess (LOXIMVI (Melanoma)) | Bliss excess [6] | Bliss excess [7] | Bliss excess [8] | Bliss excess [9] | Bliss excess [10] | Bliss excess [11] | Bliss excess [12] | Bliss excess [13] | Bliss excess [14] | Bliss excess [15] | Bliss excess (EW-11 (Ewing's Sarcoma)) | Bliss excess (GAMG (Glioblastoma)) | Bliss excess [16]
1 | Cn1cnc2c(F)c(Nc3ccc(Br)cc3Cl)c(C(=O)NOCCO)cc21 [Selumetinib] + CCN(CCO)CCCOc1ccc2c(Nc3cc(CC(=O)Nc4cccc(F)c4)[nH]n3)ncnc2c1 [AZD2811] (first compound max 10 µM, 7x7, partner max 1 µM) | 0.306 | -0.0094 | -0.0215 | -0.0388 | -0.03 | -0.0054 | 0.012 | 0.0174 | 0.0066 | -0.0067 | -0.0677 | -0.0093 | -0.0617 | -0.0548 | -0.0654 | -0.0825 | 0.0805 | -0.0705 | -0.0213 | -0.0029
2 | Cc1c2c(nn1C)CSCc1cc(n(C)n1)CSc1cc(c3ccccc3c1)OCCCc1c(C(=O)O)n(C)c3c-2c(Cl)ccc13 [AZD5991] + CC1(C)CCC(CN2CCN(c3ccc(C(=O)NS(=O)(=O)c4ccc(NCC5CCOCC5)c([N+](=O)[O-])c4)c(Oc4cnc5[nH]ccc5c4)c3)CC2)=C(c2ccc(Cl)cc2)C1 [Venetoclax] (first compound max 1 µM, 7x7, partner max 1 µM) | 0.0043 | 0.0364 | 0.0122 | 0.0269 | -0.0233 | -0.0365 | -0.0182 | -0.0151 | -0.0557 | -0.0621 | 0.0077 | -0.0001 | -0.0082 | -0.019 | -0.0318 | 0.0016 | 0.241 | 0.144 | -0.0047 | 
3 | CN(C)CCCOc1ccc(-c2ccc3ncc4c(c3c2)n(C2CCOCC2)c(=O)n4C)cn1 [AZD0156] + O=C(c1cc(Cc2n[nH]c(=O)c3ccccc23)ccc1F)N1CCN(C(=O)C2CC2)CC1 [Olaparib] (first compound max 3 µM, partner max 3 µM) | 0.106 | -0.0184 | 0.0741 | -0.0064 |  | -0.0123 | 0.0317 | -0.0116 | -0.0012 | -0.0473 | -0.0449 | 0.0705 | 0.0655 | -0.0233 | 0.0131 | -0.0513 | 0.163 | 0.0995 | 0.0515 | 0.0594
4 | CN(CCO)CC[C@H](CSc1ccccc1)Nc1ccc(S(=O)(=O)NC(=O)c2ccc(N3CCC([C@@H](O)c4ccccc4-c4ccc(Cl)cc4)CC3)cc2)cc1S(=O)(=O)C(F)(F)F [AZD4320] + C=CCn1c(=O)c2cnc(Nc3ccc(N4CCN(C)CC4)cc3)nc2n1-c1cccc(C(C)(C)O)n1 [AZD1775] (first compound max 1 µM, partner max 1 µM) | 0.14 | -0.0201 | -0.0266 | 0.0004 | 0.0341 |  | 0.0203 | 0.0961 | -0.0514 | -0.0217 | -0.0113 | 0.0577 | 0.002 | -0.0047 | -0.0482 | 0.0911 | 0.0963 | 0.091 | 0.0041 | 0.0631
5 | Cc1c2c(nn1C)CSCc1cc(n(C)n1)CSc1cc(c3ccccc3c1)OCCCc1c(C(=O)O)n(C)c3c-2c(Cl)ccc13 [AZD5991] + CCN(CCO)CCCOc1ccc2c(Nc3cc(CC(=O)Nc4cccc(F)c4)[nH]n3)ncnc2c1 [AZD2811] (first compound max 1 µM, 7x7, partner max 1 µM) | 0.0503 | 0.038 | 0.0153 | -0.0253 | 0.0074 | -0.0434 | 0.0212 | 0.0712 | 0.0128 |  | 0.0421 | 0.0156 | -0.0014 | 0.0088 | -0.0037 | -0.049 | 0.191 | 0.0342 | 0.0105 | -0.0077
6 | Cc1c2c(nn1C)CSCc1cc(n(C)n1)CSc1cc(c3ccccc3c1)OCCCc1c(C(=O)O)n(C)c3c-2c(Cl)ccc13 [AZD5991] + Cc1cc2ncnn2cc1Nc1ncc2c(n1)n(C1CCOCC1)c(=O)n2C [AZD7648] (first compound max 1 µM, 7x7, partner max 10 µM) | -0.011 | -0.0144 | -0.0341 | -0.0556 | -0.0322 | -0.0913 | 0.0193 | 0.0455 | -0.032 | -0.0498 | -0.0059 | 0.0101 | -0.0292 | -0.0209 | 0.0003 | -0.0536 |  | -0.0197 | -0.0321 | -0.0304
7 | C=CCn1c(=O)c2cnc(Nc3ccc(N4CCN(C)CC4)cc3)nc2n1-c1cccc(C(C)(C)O)n1 [AZD1775] + C1CN(CCC1(C(=O)N[C@@H](CCO)C2=CC=C(C=C2)Cl)N)C3=NC=NC4=C3C=CN4 [Capivasertib] (first compound max 3 µM, partner max 3 µM) | 0.029 | -0.0111 | 0.066 | -0.0369 |  | -0.0923 | 0.0764 | -0.0138 |  | -0.14 | -0.0263 | -0.0004 | -0.0251 | 0.0334 | -0.0097 | -0.144 |  | 0.0203 | 0.0181 | -0.0134
